Source: the supplement of paper PMC10307832

Tests used:
Assay in all cases: relative viability (nuclei count vs DMSO), 5 days (fraction); higher = more cells survive
AZD8055 = compound: COc1ccc(-c2ccc3c(N4CCOC[C@@H]4C)nc(N4CCOC[C@@H]4C)nc3n2)cc1CO [AZD8055]
Procedure, shortened: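 Five library-drug doses, separated by factors of √10, were pinned into 1536-well plates holding lung cancer cell lines after an overnight stay at 37 °C. Cells were fixed, permeabilised and Hoechst-stained in one step after 5 days without medium change, then imaged at 4×. Viability compares treated-well with vehicle-well nuclei, counted in MetaXpress, as a median across plates. Passing plates had control CV below 25% and at least one doubling.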

AZD8055 + Olaparib = compound: COc1ccc(-c2ccc3c(N4CCOC[C@@H]4C)nc(N4CCOC[C@@H]4C)nc3n2)cc1CO [AZD8055] + O=C(c1cc(Cc2n[nH]c(=O)c3ccccc23)ccc1F)N1CCN(C(=O)C2CC2)CC1 [Olaparib] (partner 8 µM)
Procedure, shortened: (§1)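 Five library-drug doses in √10 steps were combined with a fixed anchor-drug dose, or a single drug was given alone, by pin tool to lung cancer cell lines in 1536-well plates the day after seeding. Nuclei were stained and counted after 5 days. Relative viability is the nuclei count in treated wells over that in vehicle wells, taken as the median of duplicate plates.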

AZD8055 + Phenformin = compound: COc1ccc(-c2ccc3c(N4CCOC[C@@H]4C)nc(N4CCOC[C@@H]4C)nc3n2)cc1CO [AZD8055] + N=C(N)NC(=N)NCCc1ccccc1 [Phenformin] (partner 250 µM)
Procedure, shortened: as §1

AZD8055 + Trametinib = compound: COc1ccc(-c2ccc3c(N4CCOC[C@@H]4C)nc(N4CCOC[C@@H]4C)nc3n2)cc1CO [AZD8055] + CC(=O)Nc1cccc(-n2c(=O)n(C3CC3)c(=O)c3c(Nc4ccc(I)cc4F)n(C)c(=O)c(C)c32)c1 [Trametinib] (partner 0.02 µM)
Procedure, shortened: as §1

Row | Cell Line | relative viability (AZD8055; 0.01 µM) | relative viability (AZD8055; 0.03162 µM) | relative viability (AZD8055; 0.1 µM) | relative viability (AZD8055; 0.3162 µM) | relative viability (AZD8055; 1 µM) | relative viability (AZD8055 + Olaparib; first compound 0.01 µM) | relative viability (AZD8055 + Olaparib; first compound 0.03162 µM) | relative viability (AZD8055 + Olaparib; first compound 0.1 µM) | relative viability (AZD8055 + Olaparib; first compound 0.3162 µM) | relative viability (AZD8055 + Olaparib; first compound 1 µM) | relative viability (AZD8055 + Phenformin; first compound 0.01 µM) | relative viability (AZD8055 + Phenformin; first compound 0.03162 µM) | relative viability (AZD8055 + Phenformin; first compound 0.1 µM) | relative viability (AZD8055 + Phenformin; first compound 0.3162 µM) | relative viability (AZD8055 + Phenformin; first compound 1 µM) | relative viability (AZD8055 + Trametinib; first compound 0.01 µM) | relative viability (AZD8055 + Trametinib; first compound 0.03162 µM) | relative viability (AZD8055 + Trametinib; first compound 0.1 µM) | relative viability (AZD8055 + Trametinib; first compound 0.3162 µM) | relative viability (AZD8055 + Trametinib; first compound 1 µM)
1 | LK-2 | 0.84 | 0.641 | 0.508 | 0.24 | 0.195 | 0.769 | 0.436 | 0.379 | 0.144 | 0.171 | 0.234 | 0.186 | 0.118 | 0.198 | 0.239 | 0.68 | 0.575 | 0.509 | 0.238 | 0.199
2 | NCI-H661 | 1.03 | 0.992 | 0.842 | 0.521 | 0.537 | 0.785 | 0.802 | 0.691 | 0.447 | 0.378 | 0.245 | 0.262 | 0.287 | 0.248 | 0.261 | 0.518 | 0.426 | 0.451 | 0.31 | 0.325
3 | HCC-366 | 1.11 | 0.963 | 0.907 | 0.698 | 0.354 | 0.426 | 0.275 | 0.273 | 0.143 | 0.136 | 0.737 | 0.449 | 0.592 | 0.23 | 0.168 | 0.35 | 0.217 | 0.166 | 0.0931 | 0.0678
4 | HOP-62 | 1.09 | 0.922 | 1.08 | 0.639 | 0.54 | 0.756 | 0.501 | 0.45 | 0.5 | 0.184 | 0.717 | 0.628 | 0.585 | 0.462 | 0.294 | 0.423 | 0.338 | 0.27 | 0.195 | 0.194
5 | NCI-H1944 | 1.01 | 0.786 | 0.673 | 0.335 | 0.316 | 0.41 | 0.428 | 0.393 | 0.254 | 0.259 | 0.193 | 0.2 | 0.187 | 0.148 | 0.129 | 0.411 | 0.378 | 0.292 | 0.228 | 0.191
6 | SW 1573 | 1.05 | 0.751 | 0.704 | 0.326 | 0.203 | 0.555 | 0.417 | 0.325 | 0.17 | 0.16 | 0.324 | 0.218 | 0.193 | 0.163 | 0.14 | 0.559 | 0.518 | 0.379 | 0.193 | 0.15
7 | LU99A | 1.07 | 0.54 | 0.461 | 0.261 | 0.253 | 0.293 | 0.226 | 0.161 | 0.183 | 0.168 | 0.802 | 0.626 | 0.492 | 0.276 | 0.28 | 0.403 | 0.337 | 0.308 | 0.203 | 0.191
8 | NCI-H647 | 0.981 | 0.717 | 0.51 | 0.332 | 0.204 | 0.7 | 0.416 | 0.301 | 0.227 | 0.169 | 0.564 | 0.412 | 0.331 | 0.14 | 0.15 | 0.538 | 0.345 | 0.322 | 0.136 | 0.127
9 | A-427 | 1.05 | 0.871 | 0.893 | 0.574 | 0.586 | 0.718 | 0.695 | 0.611 | 0.529 | 0.431 | 0.459 | 0.381 | 0.321 | 0.25 | 0.291 | 0.746 | 0.577 | 0.488 | 0.351 | 0.334
10 | COR-L 105 | 1.04 | 0.947 | 0.64 | 0.378 | 0.435 | 0.738 | 0.741 | 0.707 | 0.455 | 0.448 | 0.506 | 0.529 | 0.35 | 0.278 | 0.275 | 0.416 | 0.412 | 0.44 | 0.404 | 0.416
11 | NCI-H441 | 1.06 | 0.929 | 0.695 | 0.427 | 0.387 | 0.691 | 0.528 | 0.359 | 0.32 | 0.249 | 0.767 | 0.574 | 0.628 | 0.27 | 0.343 | 0.432 | 0.452 | 0.282 | 0.229 | 0.201
12 | EBC-1 | 1.11 | 0.828 | 0.609 | 0.244 | 0.205 | 0.764 | 0.51 | 0.331 | 0.227 | 0.172 | – | – | – | – | – | – | – | – | – | –
13 | NCI-H1648 | 0.642 | 0.745 | 0.542 | 0.271 | 0.326 | 0.658 | 0.739 | 0.561 | 0.239 | 0.287 | – | – | – | – | – | 0.396 | 0.446 | 0.342 | 0.316 | 0.209
14 | ABC-1 | 0.948 | 1.08 | 0.757 | 0.332 | 0.413 | 1.3 | 1.37 | 0.992 | 0.717 | 0.907 | 0.198 | 0.289 | 0.226 | 0.197 | 0.22 | – | – | – | – | –
15 | NCI-H1563 | 0.844 | 0.791 | 0.719 | 0.604 | 0.684 | – | – | – | – | – | 0.632 | 0.66 | 0.617 | 0.656 | 0.641 | – | – | – | – | –
16 | NCI-H1299 | 1.04 | 1.06 | 1.04 | 0.807 | 0.415 | 1.06 | 1.03 | 0.889 | 0.574 | 0.353 | – | – | – | – | – | – | – | – | – | –
17 | A549 | 1 | 0.83 | 0.639 | 0.19 | 0.106 | 0.279 | 0.359 | 0.21 | 0.142 | 0.0857 | 0.175 | 0.155 | 0.1 | 0.0798 | 0.0524 | – | – | – | – | –
18 | IA-LM | 0.98 | 0.651 | 0.241 | 0.103 | 0.116 | 0.8 | 0.823 | 0.551 | 0.302 | 0.114 | – | – | – | – | – | – | – | – | – | –
19 | Calu-6 | 1.13 | 0.991 | 0.835 | 0.621 | 0.449 | 0.716 | 0.616 | 0.505 | 0.478 | 0.362 | – | – | – | – | – | – | – | – | – | –
